Converted amounts (≈) assume the structure as drawn. Read-outs that look alike come from different tables or passages of the source.
Experiments:
M. smegmatis = M. smegmatis cell growth inhibition; type: cell-based, Mycobacterium smegmatis
M. tuberculosis HN878 = M. tuberculosis HN878 growth inhibition; type: cell-based, Mycobacterium tuberculosis
M. tuberculosis Erdman = M. tuberculosis Erdman growth inhibition; type: cell-based, Mycobacterium tuberculosis
M. tuberculosis H37Rv = M. tuberculosis H37Rv growth inhibition; type: cell-based, Mycobacterium tuberculosis
[1] = tested on: M. abscessus smooth variant; test: microbe, parasite or virus in culture; type: cell-based; conditions: for MIC: Mycobacteroides abscessus
[2] = tested on: M. abscessus rough variant; test: microbe, parasite or virus in culture; type: cell-based
Bacillus subtilis = test: B. subtilis growth inhibition; type: cell-based; conditions: Bacillus subtilis, read-out: Bs IC50
E. coli = E. coli growth inhibition; type: cell-based, Escherichia coli; conditions: read-out: Ec IC50
[3] = tested on: T. brucei bloodstream forms; test: T. brucei bloodstream form growth inhibition; type: cell-based, Trypanosoma brucei; conditions: read-out: T. brucei IC50
[4] = tested on: T. cruzi Dm28c epimastigotes; test: T. cruzi epimastigote growth inhibition; type: cell-based, Trypanosoma cruzi; conditions: read-out: T. cruzi IC50 (EPI)
[5] = tested on: T. cruzi Dm28c intracellular amastigotes; test: T. cruzi intracellular amastigote inhibition; type: cell-based, Trypanosoma cruzi; conditions: read-out: T. cruzi IC50 (PAR)
[6] = tested on: L. donovani promastigotes; test: L. donovani promastigote growth inhibition; type: cell-based, Leishmania donovani; conditions: read-out: L. donovani IC50
[7] = tested on: L. mexicana promastigotes; test: L. mexicana promastigote growth inhibition; type: cell-based, Leishmania mexicana
[8] = tested on: Plasmodium falciparum asexual blood stages; test: P. falciparum asexual blood stage; type: cell-based
[9] = biological target: M. tuberculosis MmpL3 (MtMmpL3) (Mycobacterium tuberculosis, UniProt P9WJV5); test: Surface plasmon resonance binding to MmpL3
Sequence of M. tuberculosis MmpL3 (MtMmpL3) (P9WJV5 whole entry): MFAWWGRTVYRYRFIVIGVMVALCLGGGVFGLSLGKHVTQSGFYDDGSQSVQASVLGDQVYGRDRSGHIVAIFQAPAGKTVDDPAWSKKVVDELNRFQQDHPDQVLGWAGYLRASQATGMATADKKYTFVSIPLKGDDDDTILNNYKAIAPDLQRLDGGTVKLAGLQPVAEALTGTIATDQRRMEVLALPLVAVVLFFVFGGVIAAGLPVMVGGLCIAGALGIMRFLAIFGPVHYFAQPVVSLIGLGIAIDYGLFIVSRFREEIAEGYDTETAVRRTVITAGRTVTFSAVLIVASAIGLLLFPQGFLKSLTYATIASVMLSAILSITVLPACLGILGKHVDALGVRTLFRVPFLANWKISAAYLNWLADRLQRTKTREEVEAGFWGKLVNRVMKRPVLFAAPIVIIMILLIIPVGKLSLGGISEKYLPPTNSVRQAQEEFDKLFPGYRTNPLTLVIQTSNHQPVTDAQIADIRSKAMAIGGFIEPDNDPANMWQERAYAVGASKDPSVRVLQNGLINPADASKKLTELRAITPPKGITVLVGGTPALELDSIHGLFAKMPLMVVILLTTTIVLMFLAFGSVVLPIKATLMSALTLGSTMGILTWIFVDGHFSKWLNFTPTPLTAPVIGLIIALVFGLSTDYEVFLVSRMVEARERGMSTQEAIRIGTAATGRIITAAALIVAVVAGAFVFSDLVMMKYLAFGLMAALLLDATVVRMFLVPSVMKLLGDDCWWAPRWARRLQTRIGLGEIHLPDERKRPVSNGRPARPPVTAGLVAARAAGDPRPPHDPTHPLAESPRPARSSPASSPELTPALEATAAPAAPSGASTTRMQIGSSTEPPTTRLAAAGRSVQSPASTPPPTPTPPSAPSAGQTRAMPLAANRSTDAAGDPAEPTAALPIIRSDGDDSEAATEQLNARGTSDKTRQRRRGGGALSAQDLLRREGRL

[10] = DSC of DMPC bilayers with inhibitor; type: physicochemical; conditions: for Tm (main transition) / ΔH / ΔT1/2: 10 wt % inhibitor, PBS pH 7.4, heating; for Decrease of Tm compared to DMPC without inhibitor: heating
[11] = DSC of DSPG bilayers with inhibitor; type: physicochemical; conditions: for Tm (main transition) / ΔH / ΔT1/2: 10 wt % inhibitor, PBS pH 7.4, heating; for Broadening of main transition peak ΔΤ1/2 compared to pure DSPG / Decrease of Tm compared to DSPG alone: heating
[12] = tested on: M. abscessus strain PIPD1^R1 (A309P mutation in MmpL3)
in vitro [13] = conditions: human
in vitro [14] = conditions: human; remark: listed apart in the source
[15] = [14C-SQ109], mice; cited from earlier work
[16] = rat, in vivo; cited from earlier work
[17] = dog, in vivo; cited from earlier work
[18] = tested on: HepG2 (human hepatocellular carcinoma) cells; test: HepG2 cell line viability; conditions: 20 μM
[19] = Rat liver microsome stability; conditions: rat liver microsomes
[20] = Mice liver microsome stability; conditions: mice microsomes
[21] = Human liver microsome stability
U2OS host cells = test: U2OS host cell growth inhibition; conditions: read-out: T. cruzi CC50 (U20S)
[22] = tested on: M. abscessus strain PIPD1^R1 (A309P mutation in MmpL3); conditions: cited from earlier work
[23] = read-out: L. mexicana IC50, promastigotes
[24] = read-out: PfABS IC50 (μM ± S.E.), asexual blood stages

CC(C)=CCC/C(C)=C/CNCCNC1C2CC3CC(C2)CC1C3 (stereo not drawn) [Compound 8a, N-geranyl-N΄-(2-adamantyl)ethane-1,2-diamine, reference compound]
IC50 (M. smegmatis; Mycolicibacterium smegmatis, read-out: Ms IC50, M. smegmatis): ~2.4 µM
MIC (M. tuberculosis HN878; Mycobacterium tuberculosis, HN878, read-out: MIC against M. tuberculosis): 0.3 to 1 µM (≈ 0.0992 to 0.331 µg/mL)
IC50 (M. tuberculosis HN878; Mycobacterium tuberculosis, HN878, read-out: Mtb HN878 IC50, dose-response curves): 0.27 ± 0.02 µM
MIC (M. tuberculosis HN878; Mycobacterium tuberculosis, HN878, read-out: Mtb HN878 MIC): 0.4 µM (≈ 0.132 µg/mL)
MIC (M. tuberculosis Erdman; Mycobacterium tuberculosis, ERDMAN, read-out: Mtb Erdman MIC): 1.8 µM (≈ 0.595 µg/mL)
MIC (M. tuberculosis H37Rv; Mycobacterium tuberculosis, H37RV, read-out: Mtb H37Rv MIC): 1.8 µM (≈ 0.595 µg/mL)
MIC ([1]; read-out: MIC against M. abscessus): 22 to 44 µM (≈ 7.27 to 14.5 µg/mL)
MIC ([1]; read-out: Ma(S) MIC): 44 µM (≈ 14.5 µg/mL)
MIC ([2]; Mycobacteroides abscessus, read-out: Ma(R) MIC): 22 µM (≈ 7.27 µg/mL)
IC50 (Bacillus subtilis): 16 µM
IC50 (E. coli; Escherichia coli): 15 µM
IC50 ([3]; Trypanosoma brucei): 0.91 ± 0.03 µM
IC50 ([4]; Trypanosoma cruzi): 6.8 ± 2 µM
IC50 ([5]; Trypanosoma cruzi, U2OS): 0.74 ± 0.04 µM
IC50 ([6]; Leishmania donovani): 2 ± 0.1 µM
IC50 ([7]; Leishmania mexicana, read-out: L. mexicana IC50, promastigotes): 0.5 µM
IC50 [7, 23]: 0.73 ± 0.2 µM
IC50 ([8]; Plasmodium falciparum, read-out: PfABS IC50 (μM ± S.E.), asexual blood stages): 1.6 µM
IC50 [8, 24]: 1.58 ± 0.2 µM
ka1 ([9]; two-state model): 429.8 M⁻¹ s⁻¹
ka2 ([9]; two-state model): 0.005315 s⁻¹
kd1 ([9]; two-state model): 1.098 s⁻¹
kd2 ([9]; two-state model): 0.02222 s⁻¹
Tm (main transition) [10]: 20.6 °C
ΔH [10]: 5.57 kcal/mol
ΔT1/2 [10]: 2.6 °C
Decrease of Tm compared to DMPC without inhibitor [10]: 3–4 °C
Tm (main transition) [11]: 50.4 °C
ΔH [11]: 12.9 kcal/mol
ΔT1/2 [11]: 2.1 °C
Broadening of main transition peak ΔΤ1/2 compared to pure DSPG [11]: 0.2–1.6 °C
Decrease of Tm compared to DSPG alone [11]: 3–4 °C
Resistance of A309P MmpL3 mutant [12]: not resistant
CC50 (in vitro [13]): 4.1 ± 0.2 µM
viability at 20 µM (in vitro [14]): 97%
half-life [15]: 5 h
half-life [16]: > 5 h
half-life [17]: > 5 h

CC(C)=CCCC(C)=CCNCCNC1(C)C2CC3CC(C2)CC1C3 (stereo not drawn) [Compound 8b, N-(3,7-dimethylocta-2,6-dien-1-yl)-N´-(2-methyl-2-adamantanyl)ethane-1,2-diamine]
IC50 (M. smegmatis; read-out: Ms IC50, M. smegmatis): 4.4 ± 0.5 µM
IC50 higher than SQ109, MtHN878 (M. tuberculosis HN878): ~ 3 fold
Less activity than SQ109 against M. tuberculosis (M. tuberculosis HN878; MtbHN878, MtErdman and MtH37Rv): 2–4 fold
IC50 (M. tuberculosis HN878; read-out: Mtb HN878 IC50, dose-response curves): 0.86 ± 0.06 µM
Mtb HN878 MIC (M. tuberculosis HN878; visual inspection): 0.8 µM
Mtb Erdman MIC (M. tuberculosis Erdman): 3.5 µM
Mtb H37Rv MIC (M. tuberculosis H37Rv): 3.5 µM
Ma(S) MIC [1]: 43 µM
Ma(R) MIC [2]: 22 µM
IC50 (E. coli): 25 µM
IC50 ([3]; bloodstream forms): 2.1 ± 0.02 µM
IC50 ([4]; epimastigotes): 3.5 ± 1 µM
IC50 ([5]; intracellular amastigotes in U2OS host cells): 0.77 ± 0.2 µM
IC50 ([6]; promastigotes): 2 ± 1 µM
IC50 [7, 23]: 0.43 ± 0.08 µM
IC50 [8, 24]: 0.66 ± 0.18 µM
koff ([9]; 1:1 Langmuir binding model): 0.6882 s⁻¹
Kd ([9]; read-out: KD, 1:1 model, 1:1 binding model, from ratio of rate constants): 188 µM
Kd ([9]; read-out: KD, 2-state, two-state model, from rate constants): 248 µM
ka1 ([9]; two-state model): 4958 M⁻¹ s⁻¹
ka2 ([9]; two-state model): 0.01084 s⁻¹
kd1 ([9]; two-state model): 1.613 s⁻¹
kd2 ([9]; two-state model): 0.03486 s⁻¹
Tm (main transition) [10]: 17.9 °C
ΔH [10]: 6.12 kcal/mol
ΔT1/2 [10]: 2.2 °C
Decrease of Tm compared to DMPC without inhibitor [10]: ca. 5.6 °C
Tm (main transition) [11]: 50.5 °C
ΔH [11]: 12.7 kcal/mol
ΔT1/2 [11]: 2.0 °C
Broadening of main transition peak ΔΤ1/2 compared to pure DSPG [11]: 0.2–1.6 °C
Decrease of Tm compared to DSPG alone [11]: 3–4 °C
HepG2 % viability @ 20 μM [18]: 100%
Intrinsic clearance rate (CLint) relative to SQ109 [19]: about twice as large
Intrinsic clearance rate (CLint) relative to SQ109 [20]: essentially the same
Intrinsic clearance rate (CLint) relative to SQ109 ([21]; human liver microsomes): about twice as large
Stability relative to SQ109 (% remanent at 60 minutes) ([21]; human, mice and rat liver microsomes): 2–4 x
CC50 (U2OS host cells): 2.8 ± 0.7 µM

Cc1ccccc1CN1CCC(O)(c2ccc(Cl)c(C(F)(F)F)c2)CC1 [PIPD1]
Resistance (fold) ([22]; MmpL3 inhibitor resistance): 32–64 x
Resistance of strain PIPD1^R1 [22]: very high resistance
